What was measured:
Type in all cases: cell-based
[1] = test system: Escherichia coli (bacteria) ATCC 8739; assay: minimum inhibitory concentration (MIC), microplate turbidity test; details: mass % of component (A) (A-4 or A-5); 48 hours at 33° C.; component (B)/(C) at 5%
Description: (§1) E. coli: Escherichia coli (bacteria) ATCC 8739 Test solutions containing these microorganisms were prepared by preculture on SCD liquid medium followed by adjusting the microorganism concentration in the liquids to the level of 10^6 to 10^7 cfu/mL using a 0.9% aqueous NaCl solution. 20 μL of each test solution was dispensed onto a microplate; 180 μL of each antimicrobial composition—prepared by the dilution with medium of component (B) and component (C) at the prescribed concentrations and component (A) at various concentrations—was added; and stirring was carried out to provide a mixed solution (the test sample). Component (A), component (B), and component (C) were prepared here so as to provide the prescribed concentrations in mass % in the mixed solutions. Each mixed solution was then cultured for 48 hours in a thermostat at 33° C., after which the turbidity of each mixed solution was observed. […]

[2] = test system: Pseudomonas aeruginosa (bacteria) ATCC 9027; assay: as above; details: mass % of component (A) (A-4 or A-5); 48 hours at 33° C.; component (B)/(C) at 5%
Description: as §1, with “P. aer: Pseudomonas aeruginosa” for “E. coli: Escherichia coli”, “9027” for “8739”

[3] = test system: Escherichia coli ATCC 8739, Pseudomonas aeruginosa ATCC 9027, Staphylococcus aureus ATCC 6538, Candida albicans ATCC 10231, Aspergillus brasiliensis ATCC 16404; assay: five-species minimum inhibitory concentration (five-species MIC), microplate turbidity test
Description: Test solutions containing these microorganisms were prepared as follows: the bacteria were precultured on SCD (soybean casein digest) liquid medium and the yeast and fungus were precultured on glucose agar medium; this was followed in each case by adjustment of the microorganism concentration in the liquids to the level of 10^6 to 10^7 cfu/mL using 0.9% aqueous NaCl solution.
20 μL of each test solution was dispensed onto a microplate; 180 μL of each antimicrobial composition—prepared by the dilution with medium of component (B) and component (C) at the prescribed concentrations given in Table 1 and component (A) at various concentrations was added; and stirring was carried out to provide a mixed solution (the test sample). Component (A), component (B), and component (C) were prepared here so as to provide the prescribed concentrations in mass % in the mixed solutions. Each mixed solution was then cultured as follows: 48 hours in a thermostat at 33° C. for the bacterial mixed solutions; 3 days at 25° C. for the yeast mixed solutions; and 1 week at 25° C. for the fungus mixed solutions. The post-culture turbidity of each mixed solution was observed. For each microorganism, the mixed solutions containing component (A) at the various concentrations, and each blending condition for component (B) or component (C) (each of the mixed solutions), those mixed solutions were identified where turbidity or the presence of colonies/filaments was not seen (i.e., mixed solutions where growth of the test microorganism had been stopped). For each of the five microorganisms, the lowest component (A) concentration in the mixed solutions where growth had been stopped was designated the minimum inhibitory concentration. […] In addition, the antimicrobial activity (enhancement effect) was evaluated also using the numerical MIC values given in those instances where a “+” or “−” is provided.

MIC (%) E. coli [1] [%] | MIC (%) P. aer [2] [%] | Compound | other results
0.13 | 0.38 | CCCCCCC(O)CO (stereo not shown) [Comp. Ex. 10, 1,2-octanediol] | –
– | – | CCCCCCCCOCC(O)CO (stereo not shown) [Comp. Ex. 5, octyl glyceryl ether] | five-species MIC (%) ([3]; Table 2, mass % of component (A) A-2 at which growth of all five microorganisms stopped, component (B)/(C) at prescribed %): 0.50+ %
0.25 | 0.75 | CCCCCCOCC(O)CO (stereo not shown) [compound 14, hexyl glyceryl ether] | –
– | – | CCCCC(CC)COCC(O)CO (stereo not shown) [Comp. Ex. 1, 2-ethylhexyl glyceryl ether] | five-species MIC (%) ([3]; Table 1, mass % of component (A) A-1 at which growth of all five microorganisms stopped, component (B)/(C) at prescribed %): 1.00+ %
– | – | OCC(O)COC1CCCCC1 (stereo not shown) [Comp. Ex. 9, cyclohexyl glyceryl ether] | five-species MIC (%) ([3]; Table 3, mass % of component (A) A-3 at which growth of all five microorganisms stopped, component (B) at prescribed %): 3.00%

Source: patent US11260003B2, “Antimicrobial composition and cosmetic containing antimicrobial composition” (ADEKA CORPORATION, priority 2017, dated 2022)
